# From US4624695A, “O-diaminophosphinyl derivatives of oximes as urease inhibitors” (Allied Corporation, priority 1983, dated 1986)
# System: soil urease
# Test: Efficacy test: urease inhibition in soil (urea remaining after incubation)
# Assay type: biochemical
# Conditions: 800 micrograms test compound and 42.8 mg urea per 20 g air-dry soil, incubated at 25° C. for three days, run in triplicate
# Procedure: Efficacy tests were conducted to evaluate the efficacy of certain representative oximated O-diaminophosphinyl compounds as urease inhibitors. The inhibition tests were run in a New York soil (Cazenovia silt loam, pH 7.2) or in Wisconsin soil (Plano silt loam, pH 5.4). Evaluations (run in triplicate) consisted of applying 800 micrograms of the test compound in 5 mL of water and 42.8 mg of urea in 1 mL of water to 20 g of air-dry soil in a glass bottle. The bottle was capped with perforated aluminum foil and incubated at 25° C. for three days prior to extraction with 100 mL of a 2M potassium chloride solution containing 0.5 mg of phenylmercuric acetate. The extracts were then analyzed for remaining urea using an autoanalyzer. Percent inhibition was calculated as [formula] where A is urea recovered from unincubated sample (urea added to soil and immediately extracted); B is urea recovered from inhibited sample; and C is urea recovered from the control (uninhibited sample).
smiles,measurement,setting,value
"CC(C)=NOP(N)(N)=O [O--(Diaminophosphinyl)-2-propanone Oxime, O-(Diaminophosphinyl)-2-propanone Oxime]","% Inhibition, Cazenovia (pH 7.2)","New York soil (Cazenovia silt loam, pH 7.2)",84%
same,"% Inhibition, Wisconsin (pH 5.4)","Wisconsin soil (Plano silt loam, pH 5.4)",53%
